According to US11986471B2, “Compounds and methods of use” (Tango Therapeutics, Inc., priority 2018, dated 2024):

What was measured:
HAP1 MTAP-deleted = assay: SDMA in-cell western assay, HAP1 MTAP-deleted cell line; assay type: cell-based; settings: for IC50: Homo sapiens, HAP1 MTAP-deleted cell line; for MTAP Intact/Deleted Ratio: IC50 ratio HAP1 MTAP-intact / HAP1 MTAP-deleted
How it was run: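 These are IC50 values from an in-cell western measuring SDMA. The HAP1 cells used carry no MTAP, in contrast to the isogenic partner line with endogenous MTAP expression.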

PRMT5 [1] = biological target: T1, PRMT5 (Homo sapiens, UniProt O14744); assay: PRMT5 IC50 assay with no cofactor; assay type: biochemical
T1 construct: purchased Viva (custom protein)
How it was run: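 Results given as IC50 (μM), from which Ki follows by dividing by 1.5 in the SAM condition or by 13.5 in the MTA condition. The ratio of SAM Ki to MTA Ki indicates MTA-cooperative preference.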

PRMT5 [2] = biological target: T1, PRMT5; assay: PRMT5 IC50 assay in the presence of MTA as cofactor; assay type: biochemical; settings: for IC50: PRMT5, MTA as cofactor
How it was run: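 IC50 values were measured against human PRMT5 with SAM, with MTA, or with no cofactor. Ki was derived from IC50 as Ki=IC50/1.5 with SAM and Ki=IC50/13.5 with MTA, and the Ki(SAM)/Ki(MTA) ratio was then taken.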

PRMT5 [3] = biological target: T1, PRMT5; assay: PRMT5 IC50 assay in the presence of SAM as cofactor; assay type: biochemical
How it was run: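 Three cofactor conditions tested for PRMT5 inhibition: none, MTA and SAM, each giving an IC50. For conversion to Ki, the MTA-condition IC50 is divided by 13.5 and the SAM-condition IC50 by 1.5, and the two Ki values are expressed as a SAM/MTA ratio.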

HAP1 MTAP-intact = assay: SDMA in-cell western assay, HAP1 MTAP-intact cell line; assay type: cell-based; settings: Homo sapiens
How it was run: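 Potency reflects cellular SDMA reduction, detected by in-cell western, in HAP1 cells with or without MTAP (endogenous expression versus null).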

[4] = ratio between Ki in the presence of SAM and Ki in the presence of MTA

T1 sequence (O14744 whole entry): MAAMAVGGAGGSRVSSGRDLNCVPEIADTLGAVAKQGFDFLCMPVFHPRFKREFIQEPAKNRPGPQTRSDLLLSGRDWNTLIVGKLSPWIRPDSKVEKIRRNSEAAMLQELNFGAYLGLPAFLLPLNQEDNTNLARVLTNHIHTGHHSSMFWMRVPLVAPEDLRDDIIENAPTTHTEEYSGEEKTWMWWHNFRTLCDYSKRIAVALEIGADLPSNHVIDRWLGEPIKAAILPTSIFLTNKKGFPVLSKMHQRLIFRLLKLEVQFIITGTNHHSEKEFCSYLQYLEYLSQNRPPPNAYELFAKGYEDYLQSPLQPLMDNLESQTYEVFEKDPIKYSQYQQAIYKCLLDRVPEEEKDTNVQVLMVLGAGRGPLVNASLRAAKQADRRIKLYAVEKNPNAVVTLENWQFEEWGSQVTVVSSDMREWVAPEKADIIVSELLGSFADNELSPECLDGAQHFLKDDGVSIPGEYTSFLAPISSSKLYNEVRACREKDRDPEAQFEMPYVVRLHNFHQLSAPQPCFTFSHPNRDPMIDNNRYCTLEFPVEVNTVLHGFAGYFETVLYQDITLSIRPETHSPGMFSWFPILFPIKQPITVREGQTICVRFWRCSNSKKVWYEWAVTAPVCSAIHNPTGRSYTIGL
T1 sequence (Q9BQA1 whole entry partner): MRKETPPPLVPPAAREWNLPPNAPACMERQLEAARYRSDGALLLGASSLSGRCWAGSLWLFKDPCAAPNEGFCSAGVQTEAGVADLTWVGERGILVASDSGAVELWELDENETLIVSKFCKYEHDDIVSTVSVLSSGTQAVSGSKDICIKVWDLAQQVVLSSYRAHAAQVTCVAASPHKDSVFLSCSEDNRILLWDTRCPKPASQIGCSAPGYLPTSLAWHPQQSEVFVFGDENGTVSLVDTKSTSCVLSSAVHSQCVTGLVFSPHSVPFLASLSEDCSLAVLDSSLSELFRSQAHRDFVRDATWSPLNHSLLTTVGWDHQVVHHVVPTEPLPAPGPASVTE

IC50 (HAP1 MTAP-deleted) [µM] | IC50 (PRMT5 [1]; read-out: No Co-factor IC50) [µM] | IC50 (PRMT5 [2]) [µM] | IC50 (PRMT5 [3]) [µM] | IC50 (HAP1 MTAP-intact) [µM] | IC50 (PRMT5 [1]) [µM] | SMILES | MTAP Intact/Deleted Ratio (HAP1 MTAP-deleted) | SAM/MTA Ratio (PRMT5 [2]; [4]) | SAM/MTA Ratio (PRMT5 [2]; ratio between the Ki in the presence of SAM and the Ki in the presence of MTA)
≥ 10 | ≥ 5 | 0.05 to 0.5 | 0.05 to 0.5 | ≥ 10 |  | O=C(NC[C@H](O)CN1CCc2c(ccc(OCc3cnco3)c2Cl)C1)c1ccnc(NC2CCC(F)C2)c1 (stereo partly drawn) [Compound 322] | C* (an IC50 ratio of less than 3 fold between the IC50 in the HAP1 MTAP-intact cell line and the HAP1 MTAP-deleted cell line) | A (a Ki ratio greater than or equal to 10 fold between the Ki in the presence of SAM and the Ki in the presence of MTA) | 
≥ 10 | ≥ 5 | 0.5 to 5 | 0.5 to 5 | ≥ 10 |  | CC(=O)N1CCC(Nc2cc(C(=O)NC[C@H](O)CN3CCc4c(ccc(OCc5ccnn5C)c4C)C3)ncn2)CC1 [Compound 203] | C* (an IC50 ratio of less than 3 fold between the IC50 in the HAP1 MTAP-intact cell line and the HAP1 MTAP-deleted cell line) | A (a Ki ratio greater than or equal to 10 fold between the Ki in the presence of SAM and the Ki in the presence of MTA) | 
1 to 10 | 0.5 to 5 | 0.05 to 0.5 | 0.05 to 0.5 | ≥ 10 |  | CCCN(C)c1nc(NC2COC2)cc(C(=O)NC[C@H](O)CN2CCc3c(ccc(OCc4cnco4)c3Cl)C2)n1 [Compound 312, (S)—N-(3-(5-chloro-6-(oxazol-5-ylmethoxy)-3N-dihydroisoquinolin-2(1H)-yl)-2-hydroxypropyl)-2-(methyl(propyl)amino)-6-(oxetan-3-ylamino)pyrimidine-4-carboxamide] | B* (an IC50 ratio greater than or equal to 3 fold but lower than 10 fold between the IC50 in the HAP1 MTAP-intact cell line and the HAP1 MTAP-deleted cell line) | A (a Ki ratio greater than or equal to 10 fold between the Ki in the presence of SAM and the Ki in the presence of MTA) | 
1 to 10 | ≥ 5 | 0.05 to 0.5 | 0.05 to 0.5 | ≥ 10 |  | Cc1ncoc1COc1ccc2c(c1C)CCN(C[C@@H](O)CNC(=O)c1ccnc(NC3CCCC3)c1)C2 [Compound 418, 2-(cyclopentylamino)-N-[(2S)-2-hydroxy-3-{5-methyl-6-[(4-methyl-1,3-oxazol-5-yl)methoxy]-1,2,3,4-tetrahydroisoquinolin-2-yl}propyl]pyridine-4-carboxamide] | C* (an IC50 ratio of less than 3 fold between the IC50 in the HAP1 MTAP-intact cell line and the HAP1 MTAP-deleted cell line) | A (a Ki ratio greater than or equal to 10 fold between the Ki in the presence of SAM and the Ki in the presence of MTA) | 
< 1 | ≥ 5 | 0.05 to 0.5 | 0.05 to 0.5 | 1 to 10 |  | Cc1ncoc1COc1ccc2c(c1)CCN(C[C@@H](O)CNC(=O)c1cc(NC3CCC3)ncn1)C2 [Compound 374, 6-(cyclobutylamino)-N-[(2S)-2-hydroxy-3-{6-[(4-methyl-1,3-oxazol-5-yl)methoxy]-1,2,3,4-tetrahydroisoquinolin-2-yl}propyl]pyrimidine-4-carboxamide] | C* (an IC50 ratio of less than 3 fold between the IC50 in the HAP1 MTAP-intact cell line and the HAP1 MTAP-deleted cell line) | A (a Ki ratio greater than or equal to 10 fold between the Ki in the presence of SAM and the Ki in the presence of MTA) | 
1 to 10 |  | 0.05 to 0.5 | 0.05 to 0.5 | 1 to 10 | 0.5 to 5 | COc1ccc(C(=O)N2CCc3cc(C(=O)NC[C@H](O)CN4CCc5cc(OCc6ocnc6C)c(F)cc5C4)ccc3C2)cc1 [Compound 577, N-[(2S)-3-[7-fluoro-6-[(4-methyloxazol-5-yl)methoxy]-3N-dihydro-1H-isoquinolin-2-yl]-2-hydroxy-propyl]-2-(4-methoxybenzoyl)-3N-dihydro-1H-isoquinoline-6-carboxamide] | B* (an IC50 ratio greater than or equal to 3 fold but lower than 10 fold between the IC50 in the HAP1 MTAP-intact cell line and the HAP1 MTAP-deleted cell line) |  | A (a Ki ratio greater than or equal to 10 fold between the Ki in the presence of SAM and the Ki in the presence of MTA)
< 1 | 0.5 to 5 | 0.05 to 0.5 | 0.05 to 0.5 | < 1 |  | CCCN(C)c1nc(NC2COC2)cc(C(=O)NC[C@H](O)CN2CCc3cc(OCc4ocnc4C)ccc3C2)n1 [Compound 390, N-[(2S)-2-hydroxy-3-{6-[(4-methyl-1,3-oxazol-5-yl)methoxy]-1,2,3,4-tetrahydroisoquinolin-2-yl}propyl]-2-[methyl(propyl)amino]-6-[(oxetan-3-yl)amino]pyrimidine-4-carboxamide] | C* (an IC50 ratio of less than 3 fold between the IC50 in the HAP1 MTAP-intact cell line and the HAP1 MTAP-deleted cell line) | A (a Ki ratio greater than or equal to 10 fold between the Ki in the presence of SAM and the Ki in the presence of MTA) | 
≥ 10 | ≥ 5 | 0.05 to 0.5 | 0.5 to 5 | ≥ 10 |  | Cc1ncoc1COc1ccc2c(c1Br)CCN(C[C@@H](O)CNC(=O)c1ccnc(NC3CCC3)c1)C2 [Compound 267, N-[(2S)-3-[5-bromo-6-[(4-methyloxazol-5-yl)methoxy]-3,4-dihydro-1H-isoquinolin-2-yl]-2-hydroxy-propyl]-2-(cyclobutylamino)pyridine-4-carboxamide] | C* (an IC50 ratio of less than 3 fold between the IC50 in the HAP1 MTAP-intact cell line and the HAP1 MTAP-deleted cell line) |  | 
< 1 | 0.5 to 5 | 0.05 to 0.5 | 0.05 to 0.5 | < 1 |  | Cc1ncoc1COc1ccc2c(c1)CCN(C[C@@H](O)CNC(=O)c1cc(NC3COC3)nc(N3CCCCC3)n1)C2 [Compound 405, N-[(2S)-2-hydroxy-3-{6-[(4-methyl-1,3-oxazol-5-yl)methoxy]-1,2,3,4-tetrahydroisoquinolin-2-yl}propyl]-6-[(oxetan-3-yl)amino]-2-(piperidin-1-yl)pyrimidine-4-carboxamide] | B* (an IC50 ratio greater than or equal to 3 fold but lower than 10 fold between the IC50 in the HAP1 MTAP-intact cell line and the HAP1 MTAP-deleted cell line) | A (a Ki ratio greater than or equal to 10 fold between the Ki in the presence of SAM and the Ki in the presence of MTA) | 
1 to 10 | ≥ 5 | 0.05 to 0.5 | 0.5 to 5 | 1 to 10 |  | Cc1ncoc1COc1ccc2c(c1)CCN(C[C@@H](O)CNC(=O)c1cccc(NC3COC3)c1)C2 [Compound 262, (S)—N-(2-hydroxy-3-(6-((4-methyloxazol-5-yl)methoxy)-3N-dihydroisoquinolin-2(1H)-yl)propyl)-3-(oxetan-3-ylamino)benzamide] | C* (an IC50 ratio of less than 3 fold between the IC50 in the HAP1 MTAP-intact cell line and the HAP1 MTAP-deleted cell line) | A (a Ki ratio greater than or equal to 10 fold between the Ki in the presence of SAM and the Ki in the presence of MTA) | 
